{"source": "patent US20260053861A1", "about": "“CELL COMPOSITIONS AND METHODS OF USING THE SAME” (THE REGENTS OF THE UNIVERSITY OF CALIFORNIA, priority 2022, published 2026)", "test_system": "hPSC-SCs", "key": {"[1]": {"details": "HTS viability of hPSC-SCs in the presence of 30 mM glucose, Prestwick library, Table S4"}}, "note": "Where a name gives a salt, the structure may show the parent alone. Read-outs that look alike come from different tables or passages of the source."}
{"smiles": "CCOC(=O)O[C@]1(C(=O)COC(=O)CC)CC[C@H]2[C@@H]3CCC4=CC(=O)C=C[C@]4(C)[C@H]3[C@@H](O)C[C@@]21C", "note": "[Prednicarbate]", "values": [{"measurement": "z.score.t", "setting": "[1]", "result": "−0.7266"}]}
{"smiles": "O=C(Cn1ccnc1[N+](=O)[O-])NCCO", "note": "[Etanidazole]", "values": [{"measurement": "z.score.t", "setting": "[1]", "result": 0.1469}]}
{"smiles": "[H]/N=C(\\N/C(=N/[H])NCCCCCCNC(=N)NC(=N)Nc1ccc(Cl)cc1)Nc1ccc(Cl)cc1", "note": "[Chlorhexidine]", "values": [{"measurement": "z.score.t", "setting": "[1]", "result": 1.056}]}
{"smiles": "O=C1CCC(N2C(=O)c3ccccc3C2=O)C(=O)N1", "note": "(stereo not drawn) [Thalidomide]", "values": [{"measurement": "z.score.t", "setting": "[1]", "result": "−1.821"}]}
{"smiles": "Nc1c(Br)cc(Br)cc1CN[C@H]1CC[C@H](O)CC1", "note": "[Ambroxol hydrochloride]", "values": [{"measurement": "z.score.t", "setting": "[1]", "result": 0.837}]}
{"smiles": "CN(C)c1nc(N(C)C)nc(N(C)C)n1", "note": "[Altretamine]", "values": [{"measurement": "z.score.t", "setting": "[1]", "result": "−0.7567"}]}
{"smiles": "CC(C)(Oc1ccc(Cl)cc1)C(=O)O", "note": "[Clofibric acid]", "values": [{"measurement": "z.score.t", "setting": "[1]", "result": "−0.8317"}]}
{"smiles": "Cc1ccccc1OCC(O)CO", "note": "(stereo not drawn) [Mephenesin]", "values": [{"measurement": "z.score.t", "setting": "[1]", "result": "−1.753"}]}
{"smiles": "CC(C)[N+](C)(CCOC(=O)C1c2ccccc2Oc2ccccc21)C(C)C", "note": "[Propantheline bromide]", "values": [{"measurement": "z.score.t", "setting": "[1]", "result": 0.9525}]}
{"smiles": "NCC[C@H](O)C(=O)N[C@@H]1C[C@H](N)[C@@H](O[C@H]2O[C@H](CN)[C@@H](O)[C@H](O)[C@H]2O)[C@H](O)[C@H]1O[C@H]1O[C@H](CO)[C@@H](O)[C@H](N)[C@H]1O", "note": "[Amikacin hydrate]", "values": [{"measurement": "z.score.t", "setting": "[1]", "result": "−0.4543"}]}
{"smiles": "CC(NCCC(c1ccccc1)c1ccccc1)c1ccccc1", "note": "(stereo not drawn) [Fendiline hydrochloride]", "values": [{"measurement": "z.score.t", "setting": "[1]", "result": "−1.478"}]}
{"smiles": "O=C(CCCN1CCC(O)(c2ccc(Cl)cc2)CC1)c1ccc(F)cc1", "note": "[Haloperidol]", "values": [{"measurement": "z.score.t", "setting": "[1]", "result": "−1.111"}]}
{"smiles": "CCN1C[C@]2(C)CC[C@H](OC)[C@@]34C1[C@]1(OCO[C@@]15C[C@H](OC)[C@H]1C[C@]3(O)[C@@H]5[C@H]1OC)[C@@H](OC(C)=O)[C@H]24", "note": "[Deltaline]", "values": [{"measurement": "z.score.t", "result": 0.1693}]}
{"smiles": "COc1ccc(C(=O)OC2C[C@H]3CC[C@@H](C2)N3C)cc1OC.Cl", "note": "(stereo partly drawn) [Convolamine hydrochloride]", "values": [{"measurement": "z.score.t", "setting": "[1]", "result": 1.345}]}
{"smiles": "C=C1c2c(Cl)ccc(O)c2C(=O)C2=C(O)[C@]3(O)C(=O)C(C(N)=O)=C(O)[C@@H](N(C)C)[C@@H]3[C@@H](O)[C@H]12.O=C(O)c1cc(S(=O)(=O)O)ccc1O", "note": "[Meclocycline sulfosalicylate]", "values": [{"measurement": "z.score.t", "setting": "[1]", "result": 1.049}]}
{"smiles": "COc1cnc(NS(=O)(=O)c2ccc(N)cc2)nc1", "note": "[Sulfameter]", "values": [{"measurement": "z.score.t", "setting": "[1]", "result": 1.493}]}
{"smiles": "N=C(N)N1CCc2ccccc2C1", "note": "[Debrisoquin sulfate]", "values": [{"measurement": "z.score.t", "setting": "[1]", "result": 0.6578}]}
{"smiles": "C#C[C@]1(O)CC[C@H]2[C@@H]3CCC4=C(CCC(=O)C4)[C@H]3CC[C@@]21C", "note": "[Norethynodrel]", "values": [{"measurement": "z.score.t", "setting": "[1]", "result": 1.857}]}
{"smiles": "Nc1ccc(C(=O)NCC(=O)O)cc1", "note": "[Aminohippuric acid]", "values": [{"measurement": "z.score.t", "setting": "[1]", "result": 0.8825}]}
{"smiles": "COc1ccccc1OCC(O)COC(N)=O", "note": "(stereo not drawn) [Methocarbamol]", "values": [{"measurement": "z.score.t", "setting": "[1]", "result": "−1.392"}]}
{"smiles": "CC(=C(CCO)SSCC1CCCO1)N(C=O)Cc1cnc(C)nc1N", "note": "(stereo in doubt) [Fursultiamine Hydrochloride]", "values": [{"measurement": "z.score.t", "result": 1.483}]}
{"smiles": "COc1cc(NS(=O)(=O)c2ccc(N)cc2)ncn1", "note": "[Sulfamonomethoxine]", "values": [{"measurement": "z.score.t", "setting": "[1]", "result": 0.453}]}
{"smiles": "NS(=O)(=O)c1cc(C2(O)NC(=O)c3ccccc32)ccc1Cl", "note": "(stereo not drawn) [Chlorthalidone]", "values": [{"measurement": "z.score.t", "setting": "[1]", "result": "−1.061"}]}
{"smiles": "COc1ccc(-c2ccc(=N)n(CCCC(=O)O)n2)cc1", "note": "[Gabazine]", "values": [{"measurement": "z.score.t", "setting": "[1]", "result": 1.252}]}
{"smiles": "CC(CN1c2ccccc2Sc2ccccc21)N(C)C", "note": "(stereo not drawn) [Promethazine hydrochloride]", "values": [{"measurement": "z.score.t", "setting": "[1]", "result": 1.578}]}
{"smiles": "Cc1onc(-c2ccccc2Cl)c1C(=O)N[C@@H]1C(=O)N2[C@@H]1SC(C)(C)[C@@H]2C(=O)O", "note": "[Cloxacillin sodium salt]", "values": [{"measurement": "z.score.t", "setting": "[1]", "result": 0.6255}]}
{"smiles": "Cc1c(O)c(=O)n(-c2ccccc2)n1C", "note": "[Antipyrine, 4-hydroxy]", "values": [{"measurement": "z.score.t", "setting": "[1]", "result": 0.04029}]}
{"smiles": "CC/C(=C(\\c1ccccc1)c1ccc(OCCN(C)C)cc1)c1ccccc1", "note": "[Tamoxifen citrate]", "values": [{"measurement": "z.score.t", "setting": "[1]", "result": "−1.827"}]}
{"smiles": "CN1CCN(C(c2ccccc2)c2ccc(Cl)cc2)CC1", "note": "(stereo not drawn) [Chlorcyclizine hydrochloride]", "values": [{"measurement": "z.score.t", "setting": "[1]", "result": "−1.754"}]}
{"smiles": "CC(C[N+](C)(C)C)OC(N)=O", "note": "(stereo not drawn) [Bethanechol chloride]", "values": [{"measurement": "z.score.t", "setting": "[1]", "result": 0.3236}]}
